# In patent US10227345B2, “Compounds and methods for inhibiting fascin” (Cornell University, priority 2014, dated 2019):
# Legend:
# [1] = tested on: MDA-MB-231 human breast tumor cells; assay: Boyden-chamber cell migration assay; format: cell-based; settings: migration 6 h
# Method: Certain tumor cells with fascin expression are listed below.
# Exemplifying procedure: MDA-MB-231 cells (5×10^4) or 4T1 Cells (1×10^5) were suspended in 100 μl starvation medium and added to the upper chamber of an insert (6.5 mm diameter, 8 μm pore size; Becton Dickson). The insert was placed in a 24-well plate containing 700 μL starvation medium with or without 10% FBS. […] Migration assays were performed for 6 h and cells are fixed with 3.7% formaldehyde. Cells were stained with crystal violet staining solution, and cells on the upper side of the insert were removed with a cotton swab. Three randomly selected fields (×10 objectives) on the lower side of the insert were photographed, and the migrated cells were counted. Migration was expressed as average number of migrated cells in a field.
# [2] = molecular target: T1, human fascin 1 (Homo sapiens, UniProt Q16658); assay: Fascin inhibition (actin bundling) assay, image-based; format: biochemical; settings: in the presence of 50 μm of the compound relative to bundle activity when the compound was not present; read-out: Inhibition (percentage reduction of bundle activity)
# T1 construct: GST (N, cleaved yes); made in house; host or cells: Escherichia coli BL21/DE3 (pGEX4T-fascin 1 plasmid)
# Outline: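 GST-tagged human fascin 1 from E. coli, thrombin-cleaved, was preincubated with compounds for 30 min, then polymerized actin was added; compounds were at 30 μM final. Bundles captured on poly-D-lysine plates were imaged, and background-corrected bundle length per well was computed, with DMSO-only wells as negative controls.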
IC50 [1],inhibition at 50 µM [2],SMILES
161 µM,100%,"O=C(Nc1nn(Cc2ccc(Cl)cc2)c2ccccc12)c1ccno1 [Compound 66, N-(1-(4-chlorobenzyl)-1H-indazol-3-yl)isoxazole-5-carboxamide]"
64 µM,90%,"Cc1nocc1C(=O)Nc1nn(Cc2ccc(Cl)cc2)c2ccccc12 [Compound 65, N-(1-(4-chlorobenzyl)-1H-indazol-3-yl)-3-methylisoxazole-4-carboxamide]"
18 µM,100%,"Cc1nocc1C(=O)Nc1nn(Cc2ccc(C(F)(F)F)cc2)c2ccccc12 [Compound 35, 3-methyl-N-(1-(4-(trifluoromethyl)benzyl)-1H-indazol-3-yl)isoxazole-4-carboxamide]"
54 µM,100%,"O=C(Nc1nn(Cc2ccc(C(F)(F)F)cc2)c2ccccc12)c1ccno1 [Compound 25, N-(1-(4-(trifluoromethyl)benzyl)-1H-indazol-3-yl)isoxazole-5-carboxamide]"
,< 10%,"Nc1nn(Cc2ccc(C(F)(F)F)cc2)c2cc(C(F)(F)F)ccc12 [Compound 106, 6-(trifluoromethyl)-1-(4-(trifluoromethyl)benzyl)-1H-indazol-3-amine]"
,10%,"Cc1nocc1C(=O)Nc1nn(Cc2ccc(C(F)(F)F)cc2)c2cncc(Cl)c12 [Compound 142, N-(4-chloro-1-(4-(trifluoromethyl)benzyl)-1H-pyrazolo[3,4-c]pyridin-3-yl)-3-methylisoxazole-4-carboxamide]"
,< 10%,"Cc1ncsc1C(=O)Nc1nn(Cc2ccc(C(F)(F)F)nc2)c2ccc(C#N)cc12 [Compound 101, N-(5-cyano-1-((6-(trifluoromethyl)pyridin-3-yl)methyl)-1H-indazol-3-yl)-4-methylthiazole-5-carboxamide]"
,< 10%,"Cc1cccc(C(=O)Nc2nn(Cc3ccc(C(F)(F)F)cc3)c3ccccc23)c1 [Compound 17, 3-methyl-N-(1-(4-(trifluoromethyl)benzyl)-1H-indazol-3-yl)benzamide]"
13 µM,100%,"O=C(Nc1nn(Cc2ccc(C(F)(F)F)cc2)c2ccccc12)c1cccnn1 [Compound 49, N-(1-(4-(trifluoromethyl)benzyl)-1H-indazol-3-yl)pyridazine-3-carboxamide]"
,< 10%,"Nc1nn(Cc2ccc(C(F)(F)F)cc2)c2ccc(C(F)(F)F)cc12 [Compound 122, 5-(trifluoromethyl)-1-(4-(trifluoromethyl)benzyl)-1H-indazol-3-amine]"
,50%,"Cc1ccc(Cn2nc(NC(=O)c3ccno3)c3ccccc32)cc1 [Compound 80, N-(1-(4-methylbenzyl)-1H-indazol-3-yl)isoxazole-5-carboxamide]"
